Key:
MDA-MB-468 = test: Growth inhibition of human MDA-MB-468 cells incubated for 48 hrs by sulforhodamine B assay; type: functional, cell-based; conditions: MDA-MB-468, 48 h
OVCAR-4 [1] = test: Growth inhibition of human OVCAR4 cells assessed as cell growth at 0.01 uM incubated for 48 hrs by sulforhodamine B assay relative to control; type: functional; conditions: OVCAR-4, 48 h, read-out: Activity
OVCAR-5 = test: Growth inhibition of human OVCAR5 cells incubated for 48 hrs by sulforhodamine B assay; type: functional, cell-based; conditions: OVCAR-5, 48 h
HCC 2998 = test: Growth inhibition of human HCC2998 cells assessed as cell growth at 1 uM incubated for 48 hrs by sulforhodamine B assay relative to control; type: functional; conditions: HCC 2998, 48 h, read-out: Activity
SW-620 = test: Growth inhibition of human SW620 cells assessed as cell growth at 0.01 uM incubated for 48 hrs by sulforhodamine B assay relative to control; type: functional; conditions: SW-620, 48 h, read-out: Activity
MDA-MB-435 [2] = test: Growth inhibition of human MDA-MB-435 cells assessed as cell growth at 1 uM incubated for 48 hrs by sulforhodamine B assay relative to control; type: functional; conditions: MDA-MB-435, 48 h, read-out: Activity
NCI-H226 = test: Growth inhibition of human NCI-H226 cells assessed as cell growth at 1 uM incubated for 48 hrs by sulforhodamine B assay relative to control; type: functional; conditions: NCI-H226, 48 h, read-out: Activity
786-0 = test: Growth inhibition of human 786-0 cells incubated for 48 hrs by sulforhodamine B assay; type: functional, cell-based; conditions: 786-0, 48 h
K562 = test: Growth inhibition of human K562 cells assessed as cell growth at 0.1 uM incubated for 48 hrs by sulforhodamine B assay relative to control; type: functional; conditions: K562, 48 h, read-out: Activity
TK-10 = test: Growth inhibition of human TK10 cells assessed as cell growth at 10 uM incubated for 48 hrs by sulforhodamine B assay relative to control; type: functional; conditions: TK-10, 48 h, read-out: Activity
MDA-MB-435 [3] = test: Growth inhibition of human MDA-MB-435 cells incubated for 48 hrs by sulforhodamine B assay; type: functional, cell-based; conditions: MDA-MB-435, 48 h
OVCAR-8 = test: Growth inhibition of human OVCAR8 cells assessed as cell growth at 0.1 uM incubated for 48 hrs by sulforhodamine B assay relative to control; type: functional; conditions: OVCAR-8, 48 h, read-out: Activity
MOLT-4 = test: Growth inhibition of human MOLT4 cells assessed as cell growth at 1 uM incubated for 48 hrs by sulforhodamine B assay relative to control; type: functional; conditions: MOLT-4, 48 h, read-out: Activity
M14 = test: Growth inhibition of human M14 cells assessed as cell growth at 0.1 uM incubated for 48 hrs by sulforhodamine B assay relative to control; type: functional; conditions: M14, 48 h, read-out: Activity
HT-29 = test: Growth inhibition of human HT-29 cells incubated for 48 hrs by sulforhodamine B assay; type: functional, cell-based; conditions: HT-29, 48 h
SK-MEL-2 = test: Growth inhibition of human SK-MEL-2 cells assessed as cell growth at 0.1 uM incubated for 48 hrs by sulforhodamine B assay relative to control; type: functional; conditions: SK-MEL-2, 48 h, read-out: Activity
U-251 = test: Growth inhibition of human U251 cells assessed as cell growth at 0.01 uM incubated for 48 hrs by sulforhodamine B assay relative to control; type: functional; conditions: U-251, 48 h, read-out: Activity
T47D = test: Growth inhibition of human T47D cells assessed as cell growth at 0.01 uM incubated for 48 hrs by sulforhodamine B assay relative to control; type: functional; conditions: read-out: Activity
OVCAR-3 = test: Growth inhibition of human OVCAR3 cells assessed as cell growth at 100 uM incubated for 48 hrs by sulforhodamine B assay relative to control; type: functional; conditions: OVCAR-3, 48 h, read-out: Activity
Hs-578T = test: Growth inhibition of human Hs578T cells assessed as cell growth at 1 uM incubated for 48 hrs by sulforhodamine B assay relative to control; type: functional; conditions: read-out: Activity
HCT-116 = test: Growth inhibition of human HCT116 cells assessed as cell growth at 100 uM incubated for 48 hrs by sulforhodamine B assay relative to control; type: functional; conditions: HCT-116, 48 h, read-out: Activity
A498 = test: Growth inhibition of human A498 cells incubated for 48 hrs by sulforhodamine B assay; type: functional, cell-based; conditions: A498, 48 h
SNB-19 = test: Growth inhibition of human SNB19 cells assessed as cell growth at 0.01 uM incubated for 48 hrs by sulforhodamine B assay relative to control; type: functional; conditions: SNB-19, 48 h, read-out: Activity
OVCAR-4 [4] = test: Growth inhibition of human OVCAR4 cells incubated for 48 hrs by sulforhodamine B assay; type: functional, cell-based; conditions: OVCAR-4, 48 h
HCT-15 = test: Growth inhibition of human HCT15 cells assessed as cell growth at 100 uM incubated for 48 hrs by sulforhodamine B assay relative to control; type: functional; conditions: HCT-15, 48 h, read-out: Activity
A549 = test: Growth inhibition of human A549/ATCC cells assessed as cell growth at 1 uM incubated for 48 hrs by sulforhodamine B assay relative to control; type: functional; conditions: A549, 48 h, read-out: Activity
LOX IMVI = test: Growth inhibition of human LOXIMVI cells incubated for 48 hrs by sulforhodamine B assay; type: functional
SR = test: Growth inhibition of human SR cells assessed as cell growth at 0.01 uM incubated for 48 hrs by sulforhodamine B assay relative to control; type: functional; conditions: read-out: Activity
[5] = read-out: LC50 (the source's name)
[6] = read-out: pLC50 (the source's name) (converted)

In the case of `COc1cc(Cl)cc(-c2nn(-c3cccc(NC(=O)c4cccc(C(F)(F)F)c4)c3)cc2-c2ccncc2)c1`, the IC50 (MDA-MB-468) is reported as 4.26 µM, the GI50 (MDA-MB-468; read-out: GI50) is reported as 4.26 µM and the CC50 (MDA-MB-468; [5]) is reported as > 100 µM. The TGI (MDA-MB-468; read-out: TGI) was > 100 µM, the GI50 (MDA-MB-468; read-out: pGI50 (converted)) was 4.27 µM and the CC50 (MDA-MB-468; [6]) was > 100 µM. The TGI (MDA-MB-468; read-out: pTGI (converted)) was > 100 µM, the growth at 0.01 µM (OVCAR-4 [1]) was 106% and the GI50 (OVCAR-5; read-out: GI50) was > 100 µM. The CC50 (OVCAR-5; [5]) was > 100 µM, the TGI (OVCAR-5; read-out: TGI) was > 100 µM and the GI50 (OVCAR-5; read-out: pGI50 (converted)) was > 100 µM. The CC50 (OVCAR-5; [6]) was > 100 µM, the TGI (OVCAR-5; read-out: pTGI (converted)) was > 100 µM and the growth at 1 µM (HCC 2998) was 103%. It also gave a growth at 0.01 µM (SW-620) of 101%, a growth at 1 µM (MDA-MB-435 [2]) of 93% and a growth at 1 µM (NCI-H226) of 54%. The GI50 (786-0; read-out: GI50) was 1.57 µM, the CC50 (786-0; [5]) was > 100 µM and the TGI (786-0; read-out: TGI) was > 100 µM. For the same compound, the GI50 (786-0; read-out: pGI50 (converted)) was 16.6 µM, the CC50 (786-0; [6]) was > 100 µM and the TGI (786-0; read-out: pTGI (converted)) was > 100 µM. For the same compound, the growth at 0.1 µM (K562) was 112%, the growth at 10 µM (TK-10) was 72.7% and the GI50 (MDA-MB-435 [3]; read-out: GI50) was > 100 µM. The LC50 (MDA-MB-435 [3]; read-out: LC50) was > 100 µM, the TGI (MDA-MB-435 [3]; read-out: TGI) was > 100 µM and the GI50 (MDA-MB-435 [3]; read-out: pGI50 (converted)) was > 100 µM. The LC50 (MDA-MB-435 [3]; read-out: pLC50 (converted)) was > 100 µM, the TGI (MDA-MB-435 [3]; read-out: pTGI (converted)) was > 100 µM and the growth at 0.1 µM (OVCAR-8) was 94%. For the same compound, the growth at 1 µM (MOLT-4) was 72%, the growth at 0.1 µM (M14) was 93% and the GI50 (HT-29; read-out: GI50) was 3.37 µM. For the same compound, the CC50 (HT-29; [5]) was > 100 µM, the TGI (HT-29; read-out: TGI) was > 100 µM and the GI50 (HT-29; read-out: pGI50 (converted)) was 3.39 µM. The CC50 (HT-29; [6]) was > 100 µM, the TGI (HT-29; read-out: pTGI (converted)) was > 100 µM and the growth at 0.1 µM (SK-MEL-2) was 95%. The growth at 0.01 µM (U-251) was 94%, the growth at 0.01 µM (T47D) was 99% and the growth at 100 µM (OVCAR-3) was 38%. For the same compound, the growth at 1 µM (Hs-578T) was 52%, the growth at 100 µM (HCT-116) was 22% and the CC50 (A498; [5]) was > 100 µM. For the same compound, the TGI (A498; read-out: TGI) was > 100 µM, the CC50 (A498; [6]) was > 100 µM and the TGI (A498; read-out: pTGI (converted)) was > 100 µM. The growth at 0.01 µM (SNB-19) was 96%, the GI50 (OVCAR-4 [4]; read-out: GI50) was > 100 µM and the CC50 (OVCAR-4 [4]; [5]) was > 100 µM. The TGI (OVCAR-4 [4]; read-out: TGI) was > 100 µM, the GI50 (OVCAR-4 [4]; read-out: pGI50 (converted)) was > 100 µM and the CC50 (OVCAR-4 [4]; [6]) was > 100 µM. The TGI (OVCAR-4 [4]; read-out: pTGI (converted)) was > 100 µM, the growth at 100 µM (HCT-15) was 28% and the growth at 1 µM (A549) was 75%. For the same compound, the GI50 (LOX IMVI; read-out: GI50) was 1.57 µM, the CC50 (LOX IMVI; [5]) was > 100 µM and the TGI (LOX IMVI; read-out: TGI) was > 100 µM. The GI50 (LOX IMVI; read-out: pGI50 (converted)) was 15.8 µM, the CC50 (LOX IMVI; [6]) was > 100 µM and the TGI (LOX IMVI; read-out: pTGI (converted)) was > 100 µM. It also gave a growth at 0.01 µM (SR) of 57%.
